Measurements taken from patent publication US9487554B2, “Estra-1,3,5(10),16-tetraene-3-carboxamide derivatives, processes for their preparation, pharmaceutical preparations comprising them and their use for preparing medicaments” (BAYER INTELLECTUAL PROPERTY GmbH, priority 2011, dated 2016).
pIC50: −log10 of the molar value. Values after ≈ are worked out from the molar mass of the structure shown. Values joined by “and” are separate entries in the source; they are usually repeats but may differ in a detail not shown here. Equal entries are not always repeated. Where two headings read alike, the source gives them in different places.

Legend:
[1] = Thermodynamic solubility in aqueous buffer pH 6.5 (shake-flask method); format: physicochemical; settings: thermodynamic from solid
Method: Determination of the Thermodynamic Solubility in Aqueous Buffer pH 6.5 (Shake-Flask Method)
The thermodynamic solubility was determined according to the shake-flask method [literature: Edward H. Kerns and Li Di (2008) Solubility Methods in: Drug-like Properties: Concepts, Structure Design and Methods, p 276-286. Burlington, Mass., Academic Press].
Here, a saturated solution of the active compound in buffer pH 6.5 was prepared and stirred for 24 h to ensure that an equilibrium between the solid and the substance in solution had formed. The solution was then centrifuged, and the concentration of the solution obtained was quantified with the aid of a calibration line.
For the sample, 2 mg of solid substance were weighed out accurately into a 4 ml glass bottle. 1 ml of phosphate buffer pH 6.5 was added. This solution was stirred on a stirrer at room temperature for 24 h. The solution was then centrifuged. To prepare the comparison for the calibration, 2 mg of solid substance were weighed out accurately and dissolved in 30 ml of acetonitrile. After a short ultrasound treatment, the solution was diluted with water to 50 ml.
Sample and comparison were quantified using HPLC with UV detection. […]
The areas of the sample and comparison injections and the calculation of the solubility (in mg/l) were determined using the HPLC software (Waters Empower 2 FR).

[2] = molecular target: recombinant human AKR1C3 (Homo sapiens (Human), UniProt P42330); assay: AKR1C3 enzyme inhibition assay (Coumberone to Coumberol fluorescence); format: biochemical; settings: individual experimental determinations
Method: The AKR1C3-inhibitory activity of the substances of the present invention was measured in the AKR1C3 assay described in the paragraphs below.
Essentially, the enzyme activity is measured by quantification of the Coumberol from Coumberone (Halim, M., Yee, D. J., and Sames, D., J. AM. CHEM. SOC. 130, 14123-14128 (2008) and Yee, D. J., Balsanek, V., Bauman, D. R., Penning, T. M., and Sames, D., Proc. Natl. Acad. Sci. USA 103, 13304-13309 (2006)). In this test, the increase of the highly fluorescent Coumberol by NADPH—(nicotinamide adenine dinucleotide phosphate)-dependent reduction of the non-fluorescent Coumberone by AKR1C3 can be determined.
The enzyme used was recombinant human AKR1C3 (Aldo-keto reductase family 1 member C3) (GenBank Accession No. NM_003739). This was expressed in E. coli as GST (glutathione S transferase) fusion protein and purified by glutathione Sepharose affinity chromatography. The GST was removed by digestion with thrombin and subsequent size exclusion chromatography (Dufort, I., Rheault, P., Huang, X F., Soucy, P., and Luu-The, V., Endocrinology 140, 568-574 (1999)).
For the assay, 50 nl of a 100-fold concentrated solution of the test substance in DMSO were pipetted into a black low-volume 384-well microtiter plate (Greiner Bio-One, Frickenhausen, Germany), 2.0 μl of a solution of AKR1C3 in assay buffer [50 mM potassium phosphate buffer pH 7, 1 mM DTT, 0.0022% (w/v) Pluronic F-127, 0.01% BSA (w/v) and protease inhibitor cocktail (Complete, EDTA-free Protease Inhibitor Cocktail from Roche)] were added and the mixture was incubated for 15 min to allow pre-binding of the substances to the enzyme prior to the enzyme reaction. The enzyme reaction was then started by addition of 3 μl of a solution of NADPH (16.7 μM→final concentration in 5 μl of assay volume is 10 μM) and Coumberone (0.5 μM→final concentration in 5 μl of assay volume is 0.3 μM) in assay buffer, and the resulting mixture was incubated at 22° C. for the reaction time of 90 min. The concentration of the AKR1C3 was adapted to the respective activity of the enzyme preparation and adjusted such that the assay was carried out in the linear range. Typical concentrations were in the region of 1 nM. The reaction was stopped by addition of 5 μl of a stop solution consisting of the inhibitor EM-1404 [F. Labrie et al. U.S. Pat. No. 6,541,463, 2003] (2 μM→final concentration in […] is 1 μM). The fluorescence of the Coumberole was then measured at 520 nm (excitation at 380 nm) using a suitable measuring instrument (Pherastar from BMG Labtechnologies). The intensity of the fluorescence was used as a measure of the amount of Coumberole formed and thus of the enzyme activity of AKR1C3. The data were normalized (enzyme reaction without inhibitor=0% inhibition; all other assay components, but no enzyme=100% inhibition).

[3] = molecular target: Human CYP17A1 (Homo sapiens (Human), UniProt P05093); assay: Inhibition of CYP17A1 (recombinant enzyme, progesterone hydroxylation, HPLC radio detection); format: biochemical
Method: The inhibition of CYP17A1 by the test compounds was evaluated using a recombinant enzyme. Human CYP17A1 was expressed in E. coli (Ehmer, P. B. et al.; J. Steroid Biochem. Mol. Biol., 75, 57-63 (2000)). The microsomal fraction and 140 μL of phosphate buffer (50 mM Na phosphate, 1 mM MgCl2, 0.1 mM EDTA, 0.1 mM dithiothreitol, pH 7.4) were preincubated separately with a mixture of progesterone (24.95 μM) and ^3H-progesterone (0.05 μM, 101.3 Ci/mmol), […] of an NADPH regeneration system (in phosphate buffer with 10 mM NADP+, 100 mM glucose 6-phosphate and 2.5 U of glucose 6-phosphate dehydrogenase) and the appropriate test substances (in 5 μl of DMSO) at 37° C. for 5 minutes. The reaction was started by addition of the enzyme and, after 30 minutes of incubation at 37° C., stopped by addition of 50 μl of 1N hydrochloric acid.
The steroids were extracted with ethyl acetate. After evaporation of the organic phase, the steroids were taken up in acetonitrile. 16α-Hydroxyprogesterone, 17α-hydroxyprogesterone and progesterone were separated using acetonitrile/water (45:55) as mobile phase on a C18 reverse-phase chromatography column (Nucleodur C18 Gravity, 3 μm, Macherey-Nagel, Düren, Germany) on an HPLC system (Agilent 1100 Series, Agilent Technologies, Waldbronn, Germany). Detection and quantification of the steroids was carried out using a radio flow detector (Berthold Technologies, Bad Wildbad, Germany). The inhibition was calculated using the formula below: […]
Each value was calculated from at least three independent experiments. The final IC50 value was calculated as the mean of 3 or 4 independent IC50 values.

recombinant human AKR1C3, sequence (P42330 whole entry): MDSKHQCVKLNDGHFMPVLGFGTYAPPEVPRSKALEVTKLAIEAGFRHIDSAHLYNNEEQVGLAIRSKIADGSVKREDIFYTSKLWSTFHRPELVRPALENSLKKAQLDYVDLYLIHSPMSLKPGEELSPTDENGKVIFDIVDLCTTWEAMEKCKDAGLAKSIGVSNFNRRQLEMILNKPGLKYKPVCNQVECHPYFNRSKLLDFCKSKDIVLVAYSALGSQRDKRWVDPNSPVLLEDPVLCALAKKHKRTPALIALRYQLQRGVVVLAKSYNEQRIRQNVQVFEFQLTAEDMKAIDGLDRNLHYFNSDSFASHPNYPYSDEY
Human CYP17A1, sequence (P05093 whole entry): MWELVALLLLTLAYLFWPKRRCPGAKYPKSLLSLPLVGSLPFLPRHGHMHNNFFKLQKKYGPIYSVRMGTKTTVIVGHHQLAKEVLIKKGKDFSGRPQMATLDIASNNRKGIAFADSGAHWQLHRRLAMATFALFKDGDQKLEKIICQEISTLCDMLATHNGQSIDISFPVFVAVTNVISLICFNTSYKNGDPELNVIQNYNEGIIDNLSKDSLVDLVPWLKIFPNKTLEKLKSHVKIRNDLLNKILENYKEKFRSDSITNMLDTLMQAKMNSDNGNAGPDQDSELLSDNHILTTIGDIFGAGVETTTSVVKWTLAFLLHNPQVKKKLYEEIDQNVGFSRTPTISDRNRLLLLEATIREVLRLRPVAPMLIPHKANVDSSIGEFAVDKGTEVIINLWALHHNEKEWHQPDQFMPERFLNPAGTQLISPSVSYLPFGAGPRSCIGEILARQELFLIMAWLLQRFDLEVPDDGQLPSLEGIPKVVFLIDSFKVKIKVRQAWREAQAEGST

## CC1(C)CC[C@@]2(CC[C@H]3[C@@H]4CCc5cc(C(N)=O)ccc5[C@H]4CC[C@@]32C)OC1=O [EM-1404, reference compound]
[1]; aqueous buffer, phosphate buffer pH 6.5, room temperature, 24 h, shake-flask, read-out: solubility
  solubility at 24 h: 0.1 µg/mL (≈ 0.253 µM)

## CN(CCC(=O)O)C(=O)c1ccc2c(c1)CC[C@@H]1[C@@H]2CC[C@]2(C)C(c3cncc(F)c3)=CC[C@@H]12 [Example 2, N-{[17-(5-Fluoropyridin-3-yl)estra-1,3,5(10),16-tetraen-3-yl]carbonyl}-N-methyl-β-alanine]
[2]
  pIC50: 8.89 and 8.85
[1]; pH 6.5, aqueous buffer
  solubility at 24 h: 354 µg/mL (≈ 765 µM)
[3]; human CYP17, 200 μM substance
  % Inhibition at a concentration of 200 μM substance: 49%
[3]; human CYP17A1 expressed in E. coli, mean of 3 or 4 independent IC50 values, read-out: IC50 ± SD CYP17
  pIC50: ~3.70
